# In patent US8859589B2 (priority 2008, dated 2014):
# “And” between values parts separate entries of the source, which are not always exact repeats. Identical values can stand only once. Like-named read-outs stand apart in the source and are kept apart here.
# How the values were obtained:
# VV = tested on: VV; design: species or system mice; conditions: mouse, in vivo
# [1] = tested on: wild-type VV (Vaccinia Virus); format: cell-based
# in vitro [2] = assay: in vitro
# [3] = tested on: dUTPase deficient mutant strain of VV; format: cell-based, Vaccinia Virus
# Cowpox Virus-BR = tested on: Cowpox Virus-BR; design: species or system BALB/c mice; conditions: mouse, in vivo
# VV or CV = tested on: VV or CV; design: species or system mice; conditions: mouse, in vivo
# CV Cowpox Virus = format: cell-based
# CV = tested on: CV; design: species or system mice; conditions: mouse, in vivo
# in vitro [4] = assay: in vitro; remark: listed apart in the source
# [5] = tested on: thymidine kinase deficient mutant strain of VV; format: cell-based, Vaccinia Virus
smiles,measurement,setting,value
O=c1[nH]c(=O)n([C@H]2C[C@H](O)[C@@H](CO)S2)cc1I [5-iodo-4′-thio-2′-deoxyuridine],protection from mortality,VV,completely protected
same,effective concentration against wild-type VV,[1],less than 1.0 μM
same,CC50,in vitro [2],> 100 µM
same,antiviral activity against mutant strain of VV,[3],retained its antiviral activity
same,MDD ± STDEV (Mean Day of Death),Cowpox Virus-BR,18.0 and 16.0 ± 2.8 and 14.0 and 14.0 ± 5.7
same,Mortality Number,Cowpox Virus-BR,0/15 and 0/13 and 1/15 and 2/15
same,reduction in mortality,VV or CV,significant reduction in mortality
same,effective concentration against CV,CV Cowpox Virus,less than 1.0 μM
same,protection from mortality,CV,complete protection from mortality
same,CC50,in vitro [4],> 100 µM
same,antiviral activity against mutant strain of VV,[5],retained its antiviral activity
"Nc1ccn(C[C@@H](CO)OCP(=O)(O)O)c(=O)n1 [Cidofovir, reference compound]",Mortality Number,Cowpox Virus-BR,0/15 and 0/14
same,Mortality Percent,Cowpox Virus-BR,0%
